Among the data in PubChem BioAssay (NCI) are GI50 and TGI values, retold here.

“And” between values parts separate entries of the source, which are not always exact repeats. Equal entries are not always repeated.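 Tested at 5 concentrations; 48 h exposure; 96-well plates; endpoints linearly interpolated, else capped at highest concentration. GI50 marks 50% less growth. At the TGI there is no net growth.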

The first assay relates to NCI-H460 lung. The assay can be described thus: NCI tumour cell line growth inhibition, 48 h.
Regarding `CCOc1cccc(/C=N/NC(=O)c2ccccc2Nc2ccnc(C(F)(F)F)c2)c1O`, the GI50 is 0.272 µM and the TGI is 7.05 µM.
Turning to `COc1ccc2c(c1)c(-c1nc(-c3cn(C)c4ncccc34)cs1)cn2CCCN1CCCCC1`, the GI50 was 1.95 µM and the TGI was 3.7 µM.
For `CSc1cc(N=Nc2nc3ccccc3s2)c2ccccc2c1O`, the GI50 is 7.83 µM and the TGI came to 17.6 µM.
Take `CCOC(=O)/C=C(/C(=O)OCC)n1cc(Cl)c(=O)n(CC(=O)OCC)c1=O`: the GI50 was 35.1 µM; the TGI is 25 µM and > 100 µM.
`CC1=C(C(=O)Nc2ccc3[nH]ncc3c2)C(c2ccc3ccccc3c2)CC(=O)N1` (configuration not stated): the GI50 is over 25 µM and the TGI is over 25 µM.
For `O=C1NNC=Nc2ccc(cc2)S(=O)(=O)c2ccc(cc2)N=CNNC1=O`, the TGI is over 100 µM.
As to `CC1OC(O[C@H]2C[C@@H](O)[C@]3(CO)[C@H]4[C@H](O)C[C@]5(C)[C@@H](C6=CC(=O)OC6)CC[C@]5(O)[C@@H]4CC[C@]3(O)C2)C(O)C(O)C1O` (some centres not stated), the GI50 is 19.1 µM and the TGI is 35.4 µM.
The like results for `CCCCC(=O)OCC1OC(n2cnc3c(=S)nc[nH]c32)C(OC(=O)CCCC)C1OC(=O)CCCC` (configuration not stated) were, in that order, 4.38 µM and over 100 µM.
The like results for `O=c1oc2ccc(F)cc2c(=O)n1-c1ccc(F)cc1F` were, in that order, 3.42 µM and 62.4 µM.
The like results for `Cn1cc(-c2cnc3ccc(NC(=O)Nc4ccc(F)c(Br)c4)cc3n2)cn1` were, in that order, 1.74 µM and 3.77 µM.
For `O=C(O)CCCCC(CCSCc1ccccc1)SCc1ccccc1` (configuration not stated), the GI50 was 33.4 µM and the TGI is over 100 µM.
The like results for `CC1=C(CCCNS(C)(=O)=O)C2=C(C)C3(CC3)[C@@](C)(O)C(=O)C2=C1` were, in that order, 0.266 µM and 0.812 µM.
Molecule `O=C1CNCCCN2CCN(CCCNCC(=O)Nc3ccc(cc3)S(=O)(=O)c3ccc(cc3)NC(=O)CNCCCN3CCN(CCCNCC(=O)Nc4ccc(cc4)S(=O)(=O)c4ccc(cc4)N1)CC3)CC2` displayed a TGI of 33.8 µM.
With `N#Cc1ccc(C#Cc2ccccc2C#CCCCCO)cc1`, the GI50 was 19.7 µM and the TGI came to 49 µM.
`O=NN(Cc1ccc(Cl)cc1)C(C(=O)O)c1ccccc1` (configuration not stated): the TGI is over 100 µM.

For another assay, the system named is OVCAR-3 ovarian. As to the kind of experiment: NCI tumour cell line growth inhibition, 48 h.
As to `CCOc1cccc(/C=N/NC(=O)c2ccccc2Nc2ccnc(C(F)(F)F)c2)c1O`, the GI50 was 0.37 µM and the TGI was determined as 51.7 µM.
The like results for `COc1ccc2c(c1)c(-c1nc(-c3cn(C)c4ncccc34)cs1)cn2CCCN1CCCCC1` were, in that order, 1.59 µM and 3.02 µM.
With `CSc1cc(N=Nc2nc3ccccc3s2)c2ccccc2c1O`, the GI50 was 7.89 µM and the TGI came out at 19.3 µM.
Consider `CCOC(=O)/C=C(/C(=O)OCC)n1cc(Cl)c(=O)n(CC(=O)OCC)c1=O`, for which the GI50 was 10.5 µM; the TGI is 14.3 µM and 28.8 µM.
For `CC1=C(C(=O)Nc2ccc3[nH]ncc3c2)C(c2ccc3ccccc3c2)CC(=O)N1` (configuration not stated), the GI50 is over 25 µM and the TGI is over 25 µM.
For `O=C1NNC=Nc2ccc(cc2)S(=O)(=O)c2ccc(cc2)N=CNNC1=O`, the TGI is over 100 µM.
Regarding `CC1OC(O[C@H]2C[C@@H](O)[C@]3(CO)[C@H]4[C@H](O)C[C@]5(C)[C@@H](C6=CC(=O)OC6)CC[C@]5(O)[C@@H]4CC[C@]3(O)C2)C(O)C(O)C1O` (some centres not stated), the GI50 is 19.8 µM and the TGI worked out at 40.7 µM.
The like results for `CCCCC(=O)OCC1OC(n2cnc3c(=S)nc[nH]c32)C(OC(=O)CCCC)C1OC(=O)CCCC` (configuration not stated) were, in that order, 1.01 µM and over 36.3 µM.
The like results for `O=c1oc2ccc(F)cc2c(=O)n1-c1ccc(F)cc1F` were, in that order, 3.26 µM and 27.7 µM.
The like results for `Cn1cc(-c2cnc3ccc(NC(=O)Nc4ccc(F)c(Br)c4)cc3n2)cn1` were, in that order, 2 µM and 5.77 µM.
As to `O=C(O)CCCCC(CCSCc1ccccc1)SCc1ccccc1` (configuration not stated), the GI50 is 37.9 µM and the TGI was over 69.9 µM.
Take `CC1=C(CCCNS(C)(=O)=O)C2=C(C)C3(CC3)[C@@](C)(O)C(=O)C2=C1`: the GI50 is 0.89 µM and the TGI turned out to be 4.7 µM.
The molecule `O=C1CNCCCN2CCN(CCCNCC(=O)Nc3ccc(cc3)S(=O)(=O)c3ccc(cc3)NC(=O)CNCCCN3CCN(CCCNCC(=O)Nc4ccc(cc4)S(=O)(=O)c4ccc(cc4)N1)CC3)CC2` had a TGI of over 89.4 µM.
`N#Cc1ccc(C#Cc2ccccc2C#CCCCCO)cc1`: the GI50 was 19.9 µM and the TGI came out at 39.6 µM.
Take `O=NN(Cc1ccc(Cl)cc1)C(C(=O)O)c1ccccc1` (configuration not stated): the TGI is over 100 µM.

Another assay has as its system SK-MEL-28 melanoma. The assay can be described thus: NCI tumour cell line growth inhibition, 48 h.
With `CCOc1cccc(/C=N/NC(=O)c2ccccc2Nc2ccnc(C(F)(F)F)c2)c1O`, the GI50 was 1.37 µM and the TGI came to 98.3 µM.
As to `COc1ccc2c(c1)c(-c1nc(-c3cn(C)c4ncccc34)cs1)cn2CCCN1CCCCC1`, the GI50 was 1.76 µM and the TGI was found to be 3.29 µM.
On to `CSc1cc(N=Nc2nc3ccccc3s2)c2ccccc2c1O`, for which the GI50 is 8.01 µM and the TGI is 18.6 µM.
Consider `CCOC(=O)/C=C(/C(=O)OCC)n1cc(Cl)c(=O)n(CC(=O)OCC)c1=O`, for which the GI50 is 20.3 µM; the TGI was 10.5 µM and 42.2 µM.
As to `CC1=C(C(=O)Nc2ccc3[nH]ncc3c2)C(c2ccc3ccccc3c2)CC(=O)N1` (configuration not stated), the GI50 is over 22.2 µM and the TGI was over 25 µM.
Molecule `O=C1NNC=Nc2ccc(cc2)S(=O)(=O)c2ccc(cc2)N=CNNC1=O` showed a TGI of over 100 µM.
As to `CC1OC(O[C@H]2C[C@@H](O)[C@]3(CO)[C@H]4[C@H](O)C[C@]5(C)[C@@H](C6=CC(=O)OC6)CC[C@]5(O)[C@@H]4CC[C@]3(O)C2)C(O)C(O)C1O` (some centres not stated), the GI50 was 21.7 µM and the TGI was 46.3 µM.
